For data set [1], the system named is keratoconus. As to conditions: 0.1% riboflavin drops, UVA 3 mW/cm 30 minutes, deepithelialized cornea; cited from earlier work.
A further data set has as its system cornea. The conditions noted are these: riboflavin drops, UVA 30 minutes, ablated cornea; cited from earlier work.
The subject of data set [2] is keratoconus. The experiment in a line: Treatment of keratoconus with photoinitiator and UV irradiation. Format: in vivo. As to conditions: 0.35M sodium persulfate drops; one 10-second UV burst 1000 mW. The procedure: A subject is diagnosed with keratoconus in both eyes. They are not able to wear contact lenses. […] Corneal hysteresis measurements are made using the Reichert Ocular Response Analyzer. Corneal hysteresis (CH) is at least 3 numbers less than the normal population. Corneal topography is also conducted to identify the location of keratoconus. The subject is chosen to receive treatment using short wavelength ultraviolet irradiation following administration of a low concentration photoinitiator. Drops of 0.35M sodium persulfate in 0.02M sodium phosphate buffer at a pH of 7.6-8.0 are administered to the cornea in an applicator designed to limit exposure to the location of keratoconus on the corneal surface. The cornea is then exposed to one 10-second burst of ultraviolet irradiation at an intensity of 1000 mW.

For another data set, the system named is post-LASIK ectasia. Briefly: Treatment for post-LASIK ectasia with photoinitiator and UV irradiation. The class given is in vivo. As to conditions: 0.35M sodium persulfate drops; one 10-second UV burst 1000 mW. As for the experimental part: A subject is diagnosed with ectasia following a LASIK procedure. […] Mechanical stability is measured using the Reichert Ocular Response Analyzer. CH values correlate with reduced mechanical stability. Pachymetry of the cornea measures a corneal stromal thickness of 300 microns or less in areas of the cornea, indicative of post-LASIK ectasia. The subject is chosen to receive treatment using short wavelength ultraviolet irradiation following administration of a low concentration photoinitiator. Drops of 0.35M sodium persulfate in 0.02M sodium phosphate buffer at a pH of 7.6-8.0 are administered to the cornea in an applicator designed to limit exposure to the location of keratoconus on the corneal surface. The cornea is then exposed to one 10-second burst of ultraviolet irradiation at an intensity of 1000 mW.

In data set [3] the test system is cornea following orthokeratology lens wear. The experiment in a line: Corneal stabilization following orthokeratology lens wear. The class given is in vivo. As to conditions: treated eye compared to untreated control eye; 0.35M sodium persulfate; one 10-second UV burst 1000 mW. The source says: Subjects are fitted with lenses for orthokeratology. The subjects have one (1) eye treated by exposure to ultraviolet irradiation following pretreatment with a photoinitiator. The contralateral eye is an untreated control. Selection of the eye to be treated is random. Examinations at the initial visit and at each follow-up include unaided visual acuity, slit-lamp examination, refractive error, corneal topography, and corneal hysteresis using the Reichert Ocular Response Analyzer. CH values correlate with reduced mechanical stability. The subject is chosen to receive treatment using short wavelength ultraviolet irradiation following administration of a low concentration photoinitiator. Drops of 0.35M sodium persulfate in 0.02M sodium phosphate buffer at a pH of 7.6-8.0 are administered to the cornea in an applicator designed to limit exposure to the corneal surface. The cornea is then exposed to one 10-second burst of ultraviolet irradiation at an intensity of 1000 mW.

For another data set, the system named is porcine cornea. Briefly: Stress-strain analysis of corneal buttons after photoinitiator and UV exposure.
The conditions of data set [4]: buffer; cited from earlier work.

Structures are written as SMILES.

Take `Cc1cc2nc3c(=O)[nH]c(=O)nc-3n(C[C@H](O)[C@H](O)[C@H](O)CO)c2cc1C` [riboflavin]: the “clinical treatment of keratoconus” value with keratoconus [1] is listed as “successful”. The corneal biomechanical stiffness entry in the data set on cornea was “significant increase”.

Consider `O=S(=O)([O-])OOS(=O)(=O)[O-].[Na+].[Na+]` [sodium persulfate], for which the “corneal hysteresis (CH)” value with keratoconus [2] is on record as “increase”; with post-LASIK ectasia it was “two-fold increase”. Moreover, the vision result with keratoconus [2] and with post-LASIK ectasia was “significant improvement” in each case. Besides, the “regression of visual acuity” value in data set [3] was “minimal to no regression”. Also, the “low modulus following exposure to ultraviolet irradiation” value with porcine cornea (0.35M sodium persulfate 1 min, 10-second bursts UV 1000 mW, 310-400 nm, acetic anhydride softened cornea) was “increased”. The low modulus result with porcine cornea (four 10-second UV exposures) was “nearly equal to untreated control cornea”; in the data set on porcine cornea (subsequent UV exposures, FIG. 1), “reduced the increase in low modulus”. In addition, in the data set with porcine cornea (single 10-second UV exposure, FIG. 1), the “strengthening (low modulus)” value is “maximum”.

Consider `CC(C#N)(CCC(=O)O)N=NC(C)(C#N)CCC(=O)O` (stereo not drawn) [4,4′-Azobis(4-cyanovaleric acid)], for which the “10th Half-life ° C. (Solvent)” value in data set [4] is listed as 69 (water) ° C.

The values above are taken from patent US20110060267A1 (priority 2008, published 2011).
